Measured values as given in patent publication US9914739B2, “6H-furo[2,3-E]indole compounds for the treatment of hepatitis C” (BRISTOL-MYERS SQUIBB COMPANY, priority 2014, dated 2018).

Tested on: genotype 1b (Con-1) HCV replicon
Assay: HCV replicon luciferase assay, genotype 1b
Assay type: cell-based
Conditions: Hepatitis C virus, Huh-7, 72 h, Huh-7 cells with genotype 1b HCV replicon, Renilla luciferase, 3 days incubation
Description: The cell lines used to evaluate compounds consist of a human hepatocyte derived cell line (Huh-7) that constitutively expresses a genotype 1b (Con-1) HCV replicon or a genotype 1b (Con-1) HCV replicon with an asparagine replacing the cysteine at amino acid 316, or a genotype 2a (JFH-1) replicon, containing a Renilla luciferase reporter gene. These cells were maintained in Dulbecco's modified Eagle medium (DMEM) containing 10% FBS, 100 U/mL penicillin/streptomycin and 1.0 mg/mL G418.
To evaluate compound efficacy, titrated compounds were transferred to sterile 384-well tissue culture treated plates, and the plates were seeded with HCV replicon cells (50 μL at a density of 2.4×10^3 cells/well) in DMEM containing 4% FBS (final DMSO concentration at 0.5%). After 3 days incubation at 37° C., cells were analyzed for Renilla Luciferase activity using the EnduRen substrate (Promega cat #E6485) according to the manufacturer's directions. Briefly, the EnduRen substrate was diluted in DMEM and then added to the plates to a final concentration of 7.5 μM. The plates were incubated for at least 1 h at 37° C. then read on a Viewlux Imager (PerkinElmer) using a luminescence program. The 50% effective concentration (EC50) was calculated using the four-parameter logistic formula noted above.

| Compound | EC50 (class symbol) [µM] | EC50 (numeric value) [µM] |
| --- | --- | --- |
| CCOC(=O)c1c(-c2ccc(F)cc2)oc2c1cc(OC(C)C)c1[nH]ccc12 [Compound 1001, ethyl 2-(4-fluorophenyl)-5-isopropoxy-6H-furo[2,3-e]indole-3-carboxylate] | > 1 |  |
| CNC(=O)c1c(-c2ccc(F)cc2)oc2c1cc(OC(C)C)c1[nH]ccc12 [Compound 1002, 2-(4-fluorophenyl)-5-isopropoxy-N-methyl-6H-furo[2,3-e]indole-3-carboxamide] | > 1 |  |
| CNC(=O)c1c(-c2ccc(F)cc2)oc2c1cc(-c1cccc(C(=O)OC)c1)c1[nH]ccc12 [Compound 1003] | > 1 | 1.46 |
| CNC(=O)c1c(-c2ccc(F)cc2)oc2c1cc(-c1cccc(C(=O)OC(C)(C)C)c1)c1[nH]ccc12 [Compound 1004, tert-butyl 3-(2-(4-fluorophenyl)-3-(methylcarbamoyl)-6H-furo[2,3-e]indol-5-yl)benzoate] | 0.1 to 1 |  |
| CNC(=O)c1c(-c2ccc(F)cc2)oc2c1cc(-c1cccc(C(=O)NC(C)(C)C)c1)c1[nH]ccc12 [Compound 1005, 5-(3-(tert-butylcarbamoyl)phenyl)-2-(4-fluorophenyl)-N-methyl-6H-furo[2,3-e]indole-3-carboxamide] | < 0.1 | 0.05 |
| CNC(=O)c1c(-c2ccc(F)cc2)oc2c1cc(-c1cccc(C(=O)NC(C)(C)C)c1)c1[nH]cc(C)c12 [Compound 1006] | 0.1 to 1 | 0.51 |
| CNC(=O)c1c(-c2ccc(F)cc2)oc2c1cc(-c1cccc(C(=O)NC(C)(C)C)c1)c1[nH]c(-c3ccccc3)cc12 [Compound 1007] | 0.1 to 1 |  |
| CNC(=O)c1c(-c2ccc(F)cc2)oc2c1cc(-c1cccc(C(=O)NC(C)(C)C)c1)c1[nH]c(C)cc12 [Compound 1008] | 0.1 to 1 |  |
| CNC(=O)c1c(-c2ccc(F)cc2)oc2c1cc(-c1ccc(OC)c(C(=O)NCC(F)(F)C(F)(F)C(F)(F)F)c1)c1[nH]ccc12 [Compound 1009] | < 0.1 |  |
| CNC(=O)C(=O)c1c[nH]c2c(OC(C)C)cc3c(C(=O)NC)c(-c4ccc(F)cc4)oc3c12 [Compound 2001] | > 1 |  |
| CNC(=O)c1c(-c2ccc(F)cc2)oc2c1cc(OC(C)C)c1[nH]cc(C(=O)C(=O)O)c12 [Compound 2002] | > 1 |  |
| CNC(=O)c1c(-c2ccc(F)cc2)oc2c1cc(-c1cccc(C(=O)NC(C)(C)C)c1)c1[nH]cc(C(=O)C(=O)OC)c12 [Compound 2003, methyl 2-(5-(3-(tert-butylcarbamoyl)phenyl)-2-(4-fluorophenyl)-3-(methylcarbamoyl)-6H-furo[2,3-e]indol-8-yl)-2-oxoacetate] | 0.1 to 1 | 0.44 |
| CNC(=O)c1c(-c2ccc(F)cc2)oc2c1cc(-c1cccc(C(=O)NC(C)(C)C)c1)c1[nH]cc(C(=O)C(=O)O)c12 [Compound 2004, 2-(5-(3-(tert-butylcarbamoyl)phenyl)-2-(4-fluorophenyl)-3-(methylcarbamoyl)-6H-furo[2,3-e]indol-8-yl)-2-oxoacetic acid] | > 1 |  |
| CNC(=O)C(=O)c1c[nH]c2c(-c3cccc(C(=O)NC(C)(C)C)c3)cc3c(C(=O)NC)c(-c4ccc(F)cc4)oc3c12 [Compound 2005] | > 1 | 5.16 |
| CNC(=O)c1c(-c2ccc(F)cc2)oc2c1cc(-c1cccc(C(=O)NC(C)(C)C)c1)c1[nH]cc(C(=O)C(=O)N(C)C)c12 [Compound 2006] | > 1 |  |
| CNC(=O)c1c(-c2ccc(F)cc2)oc2c1cc(-c1cccc(C(=O)O)c1)c1[nH]ccc12 [Compound 3001, 3-(2-(4-fluorophenyl)-3-(methylcarbamoyl)-6H-furo[2,3-e]indol-5-yl)benzoic acid] | > 1 |  |
| CNC(=O)c1c(-c2ccc(F)cc2)oc2c1cc(-c1cccc(C(=O)O)c1)c1c2ccn1C(=O)C(F)(F)F [Compound 3002, 3-(2-(4-fluorophenyl)-3-(methylcarbamoyl)-6-(2,2,2-trifluoroacetyl)-6H-furo[2,3-e]indol-5-yl)benzoic acid] | > 1 |  |
| CNC(=O)c1c(-c2ccc(F)cc2)oc2c1cc(-c1cccc(C(=O)NC(C)(C)C)c1)c1c2ccn1C(=O)C(F)(F)F [Compound 3003] | 0.1 to 1 | 0.2 |
| CNC(=O)c1c(-c2ccc(F)cc2)oc2c1cc(-c1cccc(C(=O)NCC(C)(C)C)c1)c1[nH]ccc12 [Compound 4001, 2-(4-fluorophenyl)-N-methyl-5-(3-(neopentylcarbamoyl)phenyl)-6H-furo[2,3-e]indole-3-carboxamide] | < 0.1 | 0.083 |
| CNC(=O)c1c(-c2ccc(F)cc2)oc2c1cc(-c1cccc(C(=O)NC34CC(C3)C4)c1)c1[nH]ccc12 [Compound 4002] | < 0.1 |  |
| CNC(=O)c1c(-c2ccc(F)cc2)oc2c1cc(-c1cccc(C(=O)NC(C)(C)CCO)c1)c1[nH]ccc12 [Compound 4003] | < 0.1 |  |
| CNC(=O)c1c(-c2ccc(F)cc2)oc2c1cc(-c1cccc(C(=O)NC(C)(C)C(=O)OC)c1)c1[nH]ccc12 [Compound 4004] | < 0.1 |  |
| CNC(=O)c1c(-c2ccc(F)cc2)oc2c1cc(-c1cccc(C(=O)NCC(C)(F)F)c1)c1[nH]ccc12 [Compound 4005] | 0.1 to 1 | 0.15 |

| Compound | EC50 (class symbol) [µM] | EC50 (numeric value) [µM] |
| --- | --- | --- |
| CNC(=O)c1c(-c2ccc(F)cc2)oc2c1cc(-c1cccc(C(=O)NC3(c4ncccn4)CC3)c1)c1[nH]ccc12 [Compound 4006] | < 0.1 |  |
| CNC(=O)c1c(-c2ccc(F)cc2)oc2c1cc(-c1cccc(C(=O)NCC(F)(F)C(F)(F)C(F)(F)F)c1)c1[nH]ccc12 [Compound 4007] | < 0.1 | 0.049 |
| CNC(=O)c1c(-c2ccc(F)cc2)oc2c1cc(-c1cccc(C(=O)NCC(C)(C)CO)c1)c1[nH]ccc12 [Compound 4008] | 0.1 to 1 | 0.13 |
| CNC(=O)c1c(-c2ccc(F)cc2)oc2c1cc(-c1cccc(C(=O)NCC(C)(C)c3ccc(Cl)cc3)c1)c1[nH]ccc12 [Compound 4009, 5-(3-((2-(4-chlorophenyl)-2-methylpropyl)carbamoyl)phenyl)-2-(4-fluorophenyl)-N-methyl-6H-furo[2,3-e]indole-3-carboxamide] | 0.1 to 1 |  |
| CNC(=O)c1c(-c2ccc(F)cc2)oc2c1cc(-c1cccc(C(=O)NC(C)(C)c3ccc(Cl)cc3)c1)c1[nH]ccc12 [Compound 4010] | < 0.1 | 0.027 |
| CNC(=O)c1c(-c2ccc(F)cc2)oc2c1cc(-c1cccc(C(=O)NCC3(CO)CCC3)c1)c1[nH]ccc12 [Compound 4011] | 0.1 to 1 |  |
| CNC(=O)c1c(-c2ccc(F)cc2)oc2c1cc(-c1cccc(C(=O)NC3(C(=O)OC)CCC3)c1)c1[nH]ccc12 [Compound 4012] | 0.1 to 1 |  |
| C#CC(C)(C)NC(=O)c1cccc(-c2cc3c(C(=O)NC)c(-c4ccc(F)cc4)oc3c3cc[nH]c23)c1 [Compound 4013] | < 0.1 |  |
| CNC(=O)c1c(-c2ccc(F)cc2)oc2c1cc(-c1cccc(C(=O)NCC(C)(C)c3ccccc3)c1)c1[nH]ccc12 [Compound 4016] | 0.1 to 1 |  |
| C#CC1(NC(=O)c2cccc(-c3cc4c(C(=O)NC)c(-c5ccc(F)cc5)oc4c4cc[nH]c34)c2)CCCCC1 [Compound 4017] | 0.1 to 1 |  |
| C#CC(CC)(CC)NC(=O)c1cccc(-c2cc3c(C(=O)NC)c(-c4ccc(F)cc4)oc3c3cc[nH]c23)c1 [Compound 4018] | < 0.1 |  |
| C#CC(C)(CC)NC(=O)c1cccc(-c2cc3c(C(=O)NC)c(-c4ccc(F)cc4)oc3c3cc[nH]c23)c1 (stereo not shown) [Compound 4019] | 0.1 to 1 |  |
| CNC(=O)c1c(-c2ccc(F)cc2)oc2c1cc(-c1cccc(C(=O)NCC(F)(F)c3ccccn3)c1)c1[nH]ccc12 [Compound 4020] | 0.1 to 1 |  |
| C#CC(C)NC(=O)c1cccc(-c2cc3c(C(=O)NC)c(-c4ccc(F)cc4)oc3c3cc[nH]c23)c1 (stereo not shown) [Compound 4021] | 0.1 to 1 |  |
| CNC(=O)c1c(-c2ccc(F)cc2)oc2c1cc(-c1cccc(C(=O)NC(C)(C)C#N)c1)c1[nH]ccc12 [Compound 4022] | < 0.1 | 0.015 |
| CNC(=O)c1c(-c2ccc(F)cc2)oc2c1cc(OC(C)C)c1c2ccn1S(C)(=O)=O [Compound 5001, 2-(4-fluorophenyl)-5-isopropoxy-N-methyl-6-(methylsulfonyl)-6H-furo[2,3-e]indole-3-carboxamide] | > 1 |  |
| CNC(=O)c1c(-c2ccc(F)cc2)oc2c1cc(-c1cccc(C(=O)NC(C)(C)C)c1)c1c2ccn1S(C)(=O)=O [Compound 5002] | < 0.1 |  |
| CNC(=O)c1c(-c2ccc(F)cc2)oc2c1cc(-c1cccc(C(=O)NC(C)(C)C)c1)c1c2c(C)cn1S(C)(=O)=O [Compound 5003] | > 1 |  |
| CNC(=O)c1c(-c2ccc(F)cc2)oc2c1cc(-c1cccc(C(=O)NC(C)(C)C)c1)c1c2cc(-c2ccccc2)n1S(C)(=O)=O [Compound 5004] | 0.1 to 1 |  |
| CNC(=O)c1c(-c2ccc(F)cc2)oc2c1cc(-c1cccc(C(=O)NC(C)(C)C)c1)c1c2cc(C)n1S(C)(=O)=O [Compound 5005] | > 1 |  |
| CNC(=O)c1c(-c2ccc(F)cc2)oc2c1cc(-c1cccc(C(=O)NC(C)(C)c3ccc(Cl)cc3)c1)c1c2ccn1S(C)(=O)=O [Compound 5006] | < 0.1 |  |
| CNC(=O)c1c(-c2ccc(F)cc2)oc2c1cc(OC(C)C)c1c2ccn1CC(F)F [Compound 6001] | > 1 |  |
| CCn1ccc2c3oc(-c4ccc(F)cc4)c(C(=O)NC)c3cc(OC(C)C)c21 [Compound 6002] | > 1 |  |
